Reference: EPA's ToxRefDB 2

How the values were obtained:
rat [1] = details: Subchronic oral toxicity in rodents, fischer, Feed, dose end: 13 week, group: systemic, systemic / clinical chemistry / alanine aminotransferase (alt/sgpt) / alanine aminotransferase (alt/sgpt) + systemic / clinical chemistry / …
rat [2] = details: Prenatal developmental toxicity study, sprague dawley, Oral, Gavage/Intubation, dose end: 15 GD
rat [3] = details: Subchronic oral toxicity in rodents, fischer, Feed, dose end: 13 week, group: systemic, systemic / in life observation / body weight / body weight gain + systemic / in life observation / food consumption / food consumption + …
rat [4] = details: Prenatal developmental toxicity study, sprague dawley, Oral, Gavage/Intubation, dose end: 15 GD; remark: listed apart in the source
[5] = group: developmental, developmental / developmental malformation / bone / exencephaly + developmental / developmental malformation / bone / thread-like + …
[6] = group: maternal, systemic / in life observation / body weight / body weight gain + systemic / in life observation / food consumption / food consumption
[7] = group: developmental, developmental / developmental malformation / bone / absent + developmental / developmental malformation / bone / bent + developmental / …
[8] = group: maternal, systemic / in life observation / body weight / body weight gain

## CC(C)[NH3+].O=C([O-])COc1ccc(Cl)cc1Cl [2,4-D, isopropylamine salt]
Rat [1]
  LEL: 187 mg/kg/day
  LOAEL: 187 mg/kg/day
  NEL: 28 mg/kg/day
  NOAEL: 28 mg/kg/day
Rat [2]; [5]
  LEL: 190 mg/kg/day
  LOAEL: 190 mg/kg/day
  NEL: 65 mg/kg/day
  NOAEL: 65 mg/kg/day
Rat [2]; [6]
  LEL: 190 mg/kg/day
  LOAEL: 190 mg/kg/day
  NEL: 65 mg/kg/day
  NOAEL: 65 mg/kg/day
Rat [3]
  LEL: 127 mg/kg/day
  LOAEL: 127 mg/kg/day
  NEL: 19 mg/kg/day
  NOAEL: 19 mg/kg/day
Rat [4]; [7]
  LEL: 100 mg/kg/day
  LOAEL: 100 mg/kg/day
  NEL: 32.5 mg/kg/day
  NOAEL: 32.5 mg/kg/day
Rat [4]; [8]
  LEL: 32.5 mg/kg/day
  LOAEL: 32.5 mg/kg/day
  NEL: < 32.5 mg/kg/day
  NOAEL: < 32.5 mg/kg/day
